Measured values from patent publication EP1531819B1, “USE OF I kappa B KINASE INHIBITORS FOR THE TREATMENT OF PAIN” (Sanofi-Aventis Deutschland GmbH, priority 2002, dated 2004).

Legend:
[1] = test system: Kaolin/Carrageenan induzierte Kniegelenksentzündung bei der Ratte; assay: Model 2: kaolin/carrageenan-induced knee joint inflammation, responses of spinal neurons to pressure on the knee; assay type: in vivo
From the text: Modell: Zymosan-induzierte Pfotenentzündung bei der Ratte; Parameter: Pfotenwegziehzeit oder Pfotenwegziehschwelle bei thermischer oder mechanischer Stimulation der Hinterpfote. • 2. Modell: Kaolin/Carrageenan induzierte Kniegelenksentzündung bei der Ratte; Parameter: Reaktion spinaler Neurone bei Druckreizung des Knies.
Versuchsdurchführung: Bei Ratten wurde in Trapanal-Narkose der Wirbelkanal eröffnet und Rückenmarksneurone, die "Schmerzimpulse" aus dem Kniegelenk verarbeiteten, identifiziert. Nach Identifizierung wurde eine Langzeitableitung durchgeführt, in der die Aktivität der Nervenzelle vor und während der Entwicklung einer akuten Entzündung im Kniegelenk registriert wurde. Dazu wurden in einer Kontrollperiode vor Induktion der Entzündung und nach Induktion der Entzündung für mehrere Stunden die Antworten auf nicht noxische und noxische Reizung am Kniegelenk gemessen.
Die akute Entzündung wurde durch die intraartikuläre Injektion einer Kaolin und Carrageenan Suspension (etwa 150 µl) induziert. In Kontrollexperimenten wurde nur das Vehikel auf die Rückenmarksoberfläche aufgebracht, um die Entwicklung der Übererregbarkeit unter Kontrollbedingungen darzustellen. In der Regel fand diese Entwicklung der Übererregbarkeit innerhalb von 2 bis 4 Stunden statt, und sie äußerte sich in einer starken Zunahme der Antworten auf nicht noxische und noxische Reizung des Kniegelenks (Tab. 3). […] Dann wurden die Antworten der Zelle auf nichtnoxische und noxische Reizung wie in den Kontrollexperimenten weiter verfolgt.

[2] = test system: Zymosan-induzierte Pfotenentzündung bei der Maus; assay: Model 3: zymosan-induced paw inflammation, paw withdrawal latency on thermal stimulation (Hargreaves Test), AUC; assay type: in vivo; settings: for AUC Mittelwert [Maß für Hyperalgesie]: thermische Hyperalgesie
Protocol: Parameter: Pfotenwegziehzeit bei thermischer Stimulation der Hinterpfote. Versuchsdurchführung: In Kurzzeitnarkose mit Isofluran wurde dem Versuchstier 25 μl einer Suspension, die 50 mg/ml Zymosan enthielt, in die rechte Hinterpfote injiziert. Dann wurde die […] quantitativ wie folgt bestimmt: Bestimmung der Pfotenwegziehzeit bei thermischer Stimulation (Hargreaves Test; s.o.). Das Versuchstier wurde in […] Versuchstier nach der Erkundungsphase (etwa 5 min) nicht mehr bewegte, wurde […] zu stimulierenden Hinterpfote positioniert und […]. Die […] ab, so dass die Hauttemperatur […] linear […] Pfote […] ab. Die Pfotentemperatur zum Zeitpunkt des Wegziehens ist für das Tier gerade eben unangenehm, […] von thermischer Schmerzschwelle. Kurz vor Zymosan-Injektion und für 7 bis 14 Tage nach Injektion wurde […] an der rechten und linken Hinterpfote bestimmt. Anschließend wurde […] Integral der Fläche, die aus […] und […] Pfote gebildet wurde, bestimmt (AUC, area between the curves, s. Tabellen 5 und 6). Je größer dieser Wert ist, umso […], und je kleiner der Wert bei Tieren, die die Substanz erhalten, desto stärker ist der Therapieerfolg. In einer 7-Tage Studie induzierte die Zymosan Injektion in […], Tab. 5). In den anderen Gruppen wurde die Substanzgabe einen Tag nach Zymosan Injektion, […] schon […]. […] Die […] Studie (7 Tage) ergab, dass die AUC unter Substanzgabe dosisabhängig abnahm. […] In einer parallel […] von Tieren wurde Paracetamol in einer sehr hohen Dosis ebenfalls zweimal am Tag verabreicht. […] Paracetamol (Tab. 5). […] […] Zymosan Injektion und Dosierschema […] zuvor beschriebenen Studie. Einziger Unterschied war, dass die weitere Studie über 14 Tage lief.

[3] = test system: Zymosan-induzierte Pfotenentzündung bei der Maus; assay: Model 4: zymosan-induced paw inflammation, spontaneous running wheel performance, AUC; assay type: in vivo, C57/B6 Mäuse
From the text: Das Versuchstier hat in seinem Haltungskäfig Zugang zu einem Laufrad, dessen Umdrehungen elektronisch registriert werden. Die C57/B6 Mäuse benutzen in den Nachtstunden freiwillig das Laufrad und legen im Mittel nach einer einwöchigen Gewöhnungsphase 4100 Meter/Nacht zurück. Nach Zymosan Injektion ist die nächtliche Laufstrecke verkürzt. Diese Abnahme der Laufleistung gilt als Parameter für entzündungsschmerzbedingte Funktionseinschränkung. Versuchsdurchführung: Die Laufstrecke/24 Std. wurde nach einer Eingewöhnungsphase eine Woche lang zur Bestimmung der Baseline gemessen. Dann wurde in Kurzzeitnarkose mit Isofluran dem Versuchstier 25 µl einer Suspension, die […] Zymosan enthielt, in die rechte Hinterpfote injiziert. Anschließend wurde Laufstrecke/24 Std. während der nächsten sieben Tage ermittelt. In der Auswertung wurde die Fläche unter der Kurve der Laufstreckenwerte bestimmt (AUC, Tab. 7): je kleiner die AUC, desto geringer die Laufleistung in der Woche nach Zymosan Injektion. […] Die Substanzgabe wurde am Tag 1 nach Zymosan Injektion begonnen.

[4] = Versuch 1, 30-60 min nach K/C-Injektion
[5] = Versuch 1, 60-120 min nach K/C-Injektion
[6] = Versuch 1, 120-180 min nach K/C-Injektion
[7] = Versuch 2, 30-60 min nach K/C-Injektion
[8] = Versuch 2, 120-180 min nach K/C-Injektion
[9] = Versuch 2, 180-240 min nach K/C-Injektion
[10] = 7 days after Zymosan, 200 mg/kg twice daily

Compound: 2-(2-Methylamino-pyrimidin-4-yl)-1 H-benzoimidazol-5-carbonsäure ((S)1-carbamoyl-2- diphenylamin-ethyl)-amid [Verbindung 22]
- Wirkung im Modell 2 [1]: gute Wirkung
- Neuronale Antworten vor und während Kniegelenksentzündung, Nicht-noxische Reizung am Kniegelenk [1, 4]: -34,1 imp/15s
- Neuronale Antworten vor und während Kniegelenksentzündung, Noxische Reizung am Kniegelenk [1, 4]: -109,1 imp/15s
- Neuronale Antworten vor und während Kniegelenksentzündung, Nicht-noxische Reizung am Kniegelenk [1, 5]: -37,2 imp/15s
- Neuronale Antworten vor und während Kniegelenksentzündung, Noxische Reizung am Kniegelenk [1, 5]: -101,1 imp/15s
- Neuronale Antworten vor und während Kniegelenksentzündung, Nicht-noxische Reizung am Kniegelenk [1, 6]: -32,1 imp/15s
- Neuronale Antworten vor und während Kniegelenksentzündung, Noxische Reizung am Kniegelenk [1, 6]: -37,8 imp/15s
- Neuronale Antworten vor und während Kniegelenksentzündung, Nicht-noxische Reizung am Kniegelenk ([1]; Versuch 1, Baseline): 0 imp/15s
- Neuronale Antworten vor und während Kniegelenksentzündung, Noxische Reizung am Kniegelenk ([1]; Versuch 1, Baseline): 0 imp/15s
- Neuronale Antworten vor und während Kniegelenksentzündung, Nicht-noxische Reizung am Kniegelenk [1, 7]: -30,6 imp/15s
- Neuronale Antworten vor und während Kniegelenksentzündung, Noxische Reizung am Kniegelenk [1, 7]: -9,2 imp/15s
- Neuronale Antworten vor und während Kniegelenksentzündung, Nicht-noxische Reizung am Kniegelenk [1, 8]: 50,3 imp/15s
- Neuronale Antworten vor und während Kniegelenksentzündung, Noxische Reizung am Kniegelenk [1, 8]: 60 imp/15s
- Neuronale Antworten vor und während Kniegelenksentzündung, Nicht-noxische Reizung am Kniegelenk [1, 9]: 68,7 imp/15s
- Neuronale Antworten vor und während Kniegelenksentzündung, Noxische Reizung am Kniegelenk [1, 9]: 96,7 imp/15s
- Neuronale Antworten vor und während Kniegelenksentzündung, Nicht-noxische Reizung am Kniegelenk ([1]; Versuch 2, Baseline): 0 imp/15s
- Neuronale Antworten vor und während Kniegelenksentzündung, Noxische Reizung am Kniegelenk ([1]; Versuch 2, Baseline): 0 imp/15s

Compound: Cc1ccc(-c2cc(C(F)(F)F)nn2-c2ccc(S(N)(=O)=O)cc2)cc1 [Celecoxib, reference compound]
- AUC Mittelwert [Maß für Hyperalgesie] ([2]; 14 days after Zymosan, 25 mg/kg twice daily): 51.5

Compound: CC(=O)Nc1ccc(O)cc1 [Paracetamol, reference compound]
- Statistischer Unterschied gegenüber Vehikel ([2]; thermische Hyperalgesie AUC, 7 days, 200 mg/kg twice daily): ja
- AUC Mittelwert [Maß für Hyperalgesie] [2, 10]: 24.6
- AUC Mittelwert (Laufradaktivität) [3, 10]: 187.2
- Laufleistung nach Zymosan Injektion gegenüber der Vehikelgruppe ([3]; 7 days, twice daily): keine Verbesserung gegenüber der Vehikelgruppe
- Statistischer Unterschied gegenüber Vehikel ([3]; Laufradaktivität AUC, 7 days, 200 mg/kg twice daily): nein
